According to patent publication US20260174856A1, “USE OF HETEROARYLOXYNAPHTHALENE COMPOUND” (SHANGHAI RUNSHI MEDICAL TECHNOLOGY CO., LTD, priority 2022, published 2026):

Tests used:
[1] = Water sorption and desorption experiment (DVS hygroscopicity); format: physicochemical; conditions: relative humidity 40%-80%, 25° C.
Procedure: Instrument: DVS Intrinsic Plus (SMS, UK).
Method: a sample was placed in a tared sample basket, the weight of the sample was automatically measured, and the sample was analyzed according to the parameters in the table below.
The samples obtained in Example 2 and Example 3 were investigated for sorption and desorption of moisture under the relative humidity of 40%-80% at 25° C. using a dynamic vapor sorption (DVS) instrument to determine the hygroscopicity of various salt forms.

[2] = Solid stability experiment; format: physicochemical; conditions: for Crystalline form: XRPD, initial crystalline form I
Procedure: The sample obtained in Example 2 was investigated for physical stability and chemical stability under the conditions of 40° C./75% RH (open) and 60° C. (sealed) for 7 days, and for physical stability under the conditions of room temperature/92.5% RH (open) for 10 days.
Note: the “/” indicates undetected; the crystalline form results were obtained using the X-ray powder diffraction method.

[3] = Grinding stability experiment; format: physicochemical; conditions: XRPD
[4] = test system: esophageal squamous cell carcinoma; test: Phase I clinical trial, effectiveness evaluation; format: in vivo, human
Text: ORR: the percentage of subjects with complete remission (CR) and partial remission (PR) among all enrolled subjects from the date of the first dose.
DCR: defined as the percentage of subjects with CR, PR, or stable disease (SD) among all enrolled subjects from the date of the first dose.
PR: refers to partial remission, meaning that the sum of the diameters of target lesions has reduced by at least 30% compared to the baseline level.
(§1) Drug: Compound B, tablets.
(§2) 1.1 Inclusion criteria: The main criteria include: (1) an age of 18-70 years old (including 18 years old and 70 years old) when signing an informed consent form; (2) patients with histopathologically or cytologically confirmed unresectable locally advanced or metastatic solid tumors, who have failed or are intolerant to standard treatments, or have no standard treatment regimens available as options; (3) the presence of at least one measurable lesion meeting RECIST v1.1 definition; (4) ECOG performance status (PS) score: 0-1; and so on.
(§3) (1) Dose escalation stage: initial doses: 1 mg, 2 mg, 4 mg, 6 mg, 9 mg, 12 mg, 16 mg, 20 mg, and 25 mg, administered orally once daily. After 7-days single administration stage, 28-days multiple administration stage began (continuous administration, with every 28 days constituting one cycle, until progressive disease or intolerable toxic reactions occurred). The subjects who had completed the treatment and observation for the 7-days single administration stage and the first cycle of the 28-days multiple administration stage, and who had acquired clinical benefit and could tolerate the drug treatment, could enter an extended treatment period based on their willingness. In the extended treatment period, every 4 weeks constituted one cycle.
(§4) (2) Dose expansion stage: 4 mg and 6 mg, administered orally once daily. For the continuous administration group, every 4 weeks constituted 1 cycle; for the group of 3-week administration and then 1-week interruption, every 4 weeks constituted one cycle; for the group of 2-week administration and then 1-week interruption, every 3 weeks constituted 1 cycle.
(§5) 1.3 Assessment of results: (1) Effectiveness evaluation: In this study, for the dose escalation stage, efficacy evaluation and data analysis were performed at the 4th week, 8th week and 12th week after the first day of the 28-days multiple administration stage and then every 8 weeks thereafter. […]

[5] = test system: nasopharyngeal squamous cell carcinoma; test: Phase I clinical trial, effectiveness evaluation; format: in vivo, human
Text: as §1, §2, §3, §4
(§6) 1.3 Assessment of results: (1) Effectiveness evaluation: In this study, for the dose escalation stage, efficacy evaluation and data analysis were performed at the 4th week, 8th week and 12th week after the first day of the 28-days multiple administration stage and then every 8 weeks thereafter. For the dose expansion stage, efficacy evaluation on the group of 3-week administration and then 1-week interruption was performed at the 4th week, 8th week and 12th week after the first day of the 28-days multiple administration stage and then every 8 weeks thereafter; efficacy evaluation on the group of 2-week administration and then 1-week interruption was performed every 6 weeks after the first day of the 28-days multiple administration stage. The indicators of effectiveness include objective response rate (ORR), progression-free survival (PFS), overall survival (OS), disease control rate (DCR), and duration of response (DOR). (2) Safety evaluation: including evaluation of vital signs and physical examinations, electrocardiograms, ECOG PS scores, laboratory tests, adverse events, and the like.

[6] = test system: pulmonary squamous cell carcinoma; test: Phase I clinical trial, effectiveness evaluation; format: in vivo, human
Text: as §1, §2, §3, §4, §6

[7] = Phase I clinical trial, safety evaluation; format: in vivo, human; conditions: monotherapy, patients with solid tumors
Text: as §1, §2, §3, §4, §5

Solubility experiment = conditions: for Solubility: deionized water, 25° C.
[8] = 40° C./75% RH (open) for 7 days
[9] = of 41 patients with esophageal squamous cell carcinoma

## Tartrate
[1]
  Hygroscopicity: 2.86%

## CNC(=O)c1cccc2cc(Oc3ccnc(NC(=O)c4ccc(N5C[C@@H](C)N[C@@H](C)C5)cc4)c3)ccc12 [Compound B]
[1]
  Hygroscopicity: 0.65%
  Hygroscopicity (words): slightly hygroscopic
[2]; [8]
  Purity: 99.86%
  Crystalline form: Not changed
[2]; 40° C./75% RH and 60° C. for 7 days
  Chemical stability: good chemical stability
[2]; 40° C./75% RH, 60° C. for 7 days, 92.5% RH for 10 days
  Physical stability of crystalline form I: good physical stability
[2]; 60° C. (sealed) for 7 days
  Purity: 99.85%
  Crystalline form: Not changed
[2]; initial state, 0 day
  Purity: 99.85%
[2]; room temperature/92.5% RH (open) for 10 days
  Crystalline form: Not changed
[3]; mechanically ground after dropwise addition of organic solvent (methanol, ethanol, acetone, acetonitrile, ethyl acetate, etc.)
  Crystalline form I after grinding: not changed
[3]; mechanically ground using a mortar for 2 min
  Crystalline form I after grinding: not changed
[3]; mechanically ground using a mortar for 5 min
  Crystalline form I after grinding: not changed
[4]; Subject S03008, 6 mg QD continuous, in the 18th treatment cycle
  Response as of the latest assessment: remains in PR
[4]; [9]
  Cases achieving PR: 6 cases
  Cases achieving SD: 21 cases
[4]; of 41 patients with esophageal squamous cell carcinoma (21 SD)
  Cases of SD showing target lesion reduction: 11 cases
[5]; 1 SD case of 2 patients with nasopharyngeal squamous cell carcinoma
  Target lesion reduction in SD case: also showed target lesion reduction
[5]; Subject S01001, stage IV, 2 mg (dose escalation) QD
  Maximum reduction in the target lesion: 7.9%
[5]; of 2 patients with nasopharyngeal squamous cell carcinoma
  Cases achieving SD: 1 case
[6]; 4 SD cases of 5 patients with pulmonary squamous cell carcinoma
  Target lesion reduction among SD cases: all of which showed target lesion reduction
[6]; Subject S09009, stage IV, 4 mg QD continuous
  Maximum reduction in the target lesion: 10.7%
[6]; of 5 patients with pulmonary squamous cell carcinoma
  Cases achieving SD: 4 cases
[7]
  Common (≥10%) adverse effects: proteinuria, hypertension, hypoalbuminemia, decreased platelet count, decreased leukocyte count, increased alanine aminotransferase, increased aspartate aminotransferase, hyperuricemia, rash, anemia and fatigue
  Overall safety: overall safe and controllable
  Severity of most adverse effects: grade 2 or below
Solubility experiment; Na2HPO4-citric acid buffer (pH 4.6)
  Solubility in buffer compared to compound A: better solubility in the buffer compared to compound A

## Phosphate
[1]
  Hygroscopicity: 3.75%
Solubility experiment
  Solubility: 3500 µg/mL

## Fumarate
[1]
  Hygroscopicity: 2.11. %
Solubility experiment
  Solubility: 1300 µg/mL

## Maleate
[1]
  Hygroscopicity: 0.81%
  Hygroscopicity (words): slightly hygroscopic
Solubility experiment
  Solubility: 2000 µg/mL
